From article PMC5500990 (European Journal of Medicinal Chemistry, 2017)
Where a SMILES comes first, the peptide text is derived from it. [ ]: non-standard residue; d: D form. dNMeF = CN[C@H](Cc1ccccc1)C(=O)O

Tests used:
H69 cells = tested on: H69 cells; set-up: method as in PMID 30108771; conditions: treatment for 48 h; obtained previously; read-out: IC50 ± SE, H69 Cells; cited from earlier work
DMS79 cells [1] = tested on: DMS79 cells; set-up: method as in PMID 30108771; conditions: treatment for 48 h; obtained previously; read-out: IC50 ± SE, DMS79 Cells; cited from earlier work
H69 and DMS79 cells = tested on: H69 and DMS79 cells; set-up: method as in PMID 30108771; conditions: range over both cell lines; read-out: IC50 values in the range against H69 and DMS79; cited from earlier work
DMS79 cells [2] = test: Annexin V conjugate / SYTOX Blue flow cytometric analysis of apoptosis; type: cell-based, human; conditions: 24 h, n = 3
Method: The novel potent N^ind-butylated peptide, 16, and its unmodified version 1 [26] were incubated for 24 h with DMS79 cells and double stained using Annexin V Fluor® 555 (AnnV) conjugate and SYTOX® Blue (SyB) dead cell stain [29], [32]. The former stain binds to phosphatidyl serine (PS) residues that become exposed at the outer surface of the plasma membrane of cells undergoing apoptosis. DMS79 cell line was selected as a variant cell line model more resistant to chemotherapy since it is established from a SCLC patient treated with three different chemotherapeutics and radiation therapy. Peptide 16 was the most cytotoxic against this cell line (Table 1).
Quantitative assessment of apoptosis was evaluated at low (2 μM) and high (6 μM) peptide concentrations using flow cytometry. A bar-chart (Fig. 6) presents the levels of cells classified into four stages; live cells (AnnV-/SyB-), early apoptotic cells (AnnV+/SyB-), late apoptotic cells (AnnV+/SyB+) and necrotic cells (AnnV-/SyB+). Dot blots are presented in the SD (Fig. S37). […] In contrast, the singly butylated peptide (16) caused highly significant (P < 0.0005) apoptosis in a concentration dependent manner. Even at a low concentration of peptide (2 μM), a small increase (P < 0.05) of early apoptotic cells was observed relative to the control sample.
The experiment was performed according to manufacturer's instructions. Briefly, DMS79 cells were seeded in 12-well plates at a seeding density of 1 × 10^5 cells/well/1980 μl complete medium. Negative control (untreated), peptides at final well concentrations of 2 and 6 μM were prepared and incubated as the above conditions stated in Section 5.1 for 24 h (total volume of wells was 2 ml). The contents of the wells were then carefully transferred into Eppendorf® tubes and centrifuged for 5 min at 500 rpm and the media discarded. Cells pellets were washed with cold PBS. Cells were gently re-suspended in 100 μl annexin-binding buffer followed by the addition of 5 μl of the Annexin V conjugate (Alexa Fluor® 555) and 0.5 μl of dead cell stain (SYTOX® Blue). Tubes were left for 10 min at RT, then 400 μl of annexin-binding buffer were added and samples were analysed on a flow cytometer (BD Biosciences - LSR Fortessa; Diva 8.0.1 software; Annexin V conjugate was excited with 561 nm laser and fluorescence measured using a 586/15 nm bandpass filter; dead cell stain was excited with 405 nm laser and fluorescence measured using 450/50 nm bandpass filter). Assays were repeated three independent times.

[Arg^6,D-Trp^7,9,MePhe^8]SP (6–11) [SPG]
IC50 (H69 cells): > 30 µM | IC50 (DMS79 cells [1]): > 30 µM

CN[C@H](Cc1ccccc1)C(=O)N[C@H](Cc1c[nH]c2ccccc12)C(=O)N[C@@H](Cc1ccccc1)C(=O)N[C@H](Cc1c[nH]c2ccccc12)C(=O)N[C@@H](CC(C)C)C(N)=O [Peptide 1, DMePhe-DTrp-Phe-DTrp-Leu-NH2] (H-[dNMeF][dW]F[dW]L-NH2; N-terminus assumed)
IC50 (H69 and DMS79 cells): 23 to 31 µM | % events, early apoptotic cells (AnnV+/SyB-) (DMS79 cells [2]; DMS79, 2 μM): 6.2% | % events, late apoptotic cells (AnnV+/SyB+) (DMS79 cells [2]; DMS79, 2 μM): 23.9% | % events, live cells (AnnV-/SyB-) (DMS79 cells [2]; DMS79, 2 μM): 67.6% | % events, necrotic cells (AnnV-/SyB+) (DMS79 cells [2]; DMS79, 2 μM): 2.3% | % events, early apoptotic cells (AnnV+/SyB-) (DMS79 cells [2]; DMS79, 6 μM): 6.6% | % events, late apoptotic cells (AnnV+/SyB+) (DMS79 cells [2]; DMS79, 6 μM): 22.9% | % events, live cells (AnnV-/SyB-) (DMS79 cells [2]; DMS79, 6 μM): 68.3% | % events, necrotic cells (AnnV-/SyB+) (DMS79 cells [2]; DMS79, 6 μM): 2.2%
